Test results published in patent US20230200390A1, “SELECTIVE HERBICIDES BASED ON SUBSTITUTED ISOXAZOLIN CARBOXAMIDES AND MEFENPYR-DIETHYL” (BAYER AKTIENGESELLSCHAFT, priority 2020, published 2023).

Columns and labels:
Assay type in all cases: in vivo
[1] = tested on: spring barley, HORVS Montoya; test: Tank-mix; post-emergence: crop damage by herbicide with/without safener mefenpyr-diethyl
Experimental: (§1) Seeds of crops (spring wheat, TRZAS; spring barley, HORVS; maize, ZEAMA) were placed in sandy loam soil in peat pots, covered with soil and cultivated in a greenhouse under good growth conditions. Two to three weeks after sowing, the test plants were treated at the 1 to 3-leaf stage. The herbicide/safener active compound combinations according to the invention, formulated as wettable powders or emulsion concentrates, and, in parallel tests, the correspondingly formulated individual active compounds were sprayed onto the green parts of the plants in various dosages using an amount of water of 300 l/ha (converted).
(§2) The pots were returned under good growing conditions in a glasshouse and a visual assessment of herbicidal effects was made at intervals from 1 to 3 weeks after herbicide application (DAT=days after treatment). Assessment was on a percentage basis in comparison with untreated control plants (0%=no injury, 100%=complete kill).

[2] = tested on: spring wheat, TRZAS Triso; test: as above
Experimental: as §1, §2

[3] = tested on: spring barley, HORVS Montoya; test: Seed treatment with safener; post-emergence herbicide, crop damage; details: for HER effect + SAF / Reduction [%] / Reduction [Difference]: mefenpyr-diethyl 0.5 g a.i./kg seed
Source text: (§3) For safener seed treatment trials, sufficient seed amounts of the respective crops (spring wheat (TRZAS); spring barley (HORVS)) were weighed into screw cap glass bottles with a minimum volume trice of the seeds.
(§4) As a first step, specified safeners formulated as wettable powder (WP) or wettable granules (WG) were weighed out for the required dosages (g a.i./kg seed), corresponding to the seed amounts. The safener amounts were mixed with a coloured slurry blind formulation type, prediluted with milk at 3.5% fat rate (25 mgs slurry formulation plus 2 ml milk per 10 grams of seed). A tube roller was used for coating. The solutions were gradually pipetted each on the rotating seeds followed by coating for min. 3 hours until all liquid had been soaked up by the seeds. Thereafter, the coated seeds were put flat on open trays for drying over night at room temperature.
(§5) Treated seeds were then placed into pots (7 cm diameter) on the surface of sandy loam, pressed down, flat covered with additional soil and finally covered with sandy soil, also pressed down, watered, and kept under good growth conditions in a greenhouse, until the plants had reached 2-leaf-stage (BBCH 12).
(§6) At that stage, post-emergence application of the specified herbicides was done on:
(§7) a) pot sets containing plants with safener-coated seeds as described above,
(§8) b) as a reference, pot sets of plants without seed treatment.
(§9) The herbicides were formulated as wettable powder (WP). Equivalent to the spray area, compound amounts were weighed out and diluted related to the water application rate (300 l/ha) to an aqueous suspension plus additive (1 l/ha MERO). Dosage related equivalents were conventionally sprayed on trays with the potted plants.
(§10) After application, the test plants were kept under good growth conditions in a greenhouse.
(§11) Assessment timings were 10 and 21 days after treatment (DAT) with the herbicide, by visual scoring of the crop damage in % (comparison of untreated with treated plants, either sprayed only with herbicide or with herbicide on plants with treated seeds).

[4] = tested on: spring wheat, TRZAS Triso; test: as above; details: for HER effect + SAF [%] (crop damage) / Reduction [%] / Reduction [Difference]: mefenpyr-diethyl 0.5 g a.i./kg seed; for HER effect [%] (crop damage, herbicide without safener): no safener
Source text: as §3, §4, §5, §6, §7, §8, §9, §10, §11

[5] = HER 6 g a.i./ha + mefenpyr-diethyl 50 g a.i./ha, 10 DAT
[6] = HER 24 g a.i./ha + mefenpyr-diethyl 100 g a.i./ha, 10 DAT
[7] = herbicide alone 6 g a.i./ha, 10 DAT
[8] = herbicide alone 24 g a.i./ha, 10 DAT
[9] = HER 24 g a.i./ha post-emergence, 10 DAT
[10] = HER 1.5 g a.i./ha + mefenpyr-diethyl 50 g a.i./ha, 21 DAT
[11] = herbicide alone 1.5 g a.i./ha, 21 DAT
[12] = HER 2 g a.i./ha + mefenpyr-diethyl 50 g a.i./ha, 21 DAT
[13] = herbicide alone 2 g a.i./ha, 21 DAT
[14] = HER 0.5 g a.i./ha post-emergence, 21 DAT
[15] = HER 2 g a.i./ha post-emergence, 21 DAT
[16] = HER 8 g a.i./ha post-emergence, 21 DAT
[17] = HER 8 g a.i./ha + mefenpyr-diethyl 50 g a.i./ha, 10 DAT
[18] = HER 32 g a.i./ha + mefenpyr-diethyl 100 g a.i./ha, 10 DAT
[19] = herbicide alone 8 g a.i./ha, 10 DAT
[20] = herbicide alone 32 g a.i./ha, 10 DAT
[21] = HER 8 g a.i./ha + mefenpyr-diethyl 50 g a.i./ha, 21 DAT
[22] = HER 8 g a.i./ha post-emergence, 10 DAT
[23] = HER 32 g a.i./ha post-emergence, 10 DAT
[24] = herbicide alone 8 g a.i./ha post-emergence, 10 DAT
[25] = herbicide alone 32 g a.i./ha post-emergence, 10 DAT
[26] = HER 2 g a.i./ha + mefenpyr-diethyl 50 g a.i./ha, 10 DAT
[27] = HER 6 g a.i./ha + mefenpyr-diethyl 50 g a.i./ha, 21 DAT
[28] = HER 24 g a.i./ha + mefenpyr-diethyl 100 g a.i./ha, 21 DAT
[29] = HER 2 g a.i./ha post-emergence, 10 DAT

CC1(C(=O)NC2COC(C(=O)OCc3ccccc3)C2)CC(c2cccc(F)c2)=NO1 (mixture of isomers) [Example 1.79]
HER effect + SAF [1, 5]: 0%
Reduction [%] [1, 5]: 100%
Reduction [Difference] [1, 5]: 20
HER effect + SAF [1, 6]: 0%
Reduction [%] [1, 6]: 100%
Reduction [Difference] [1, 6]: 70
HER effect [1, 7]: 20%
HER effect [1, 8]: 70%
HER effect + SAF [2, 5]: 0%
Reduction [%] [2, 5]: 100%
Reduction [Difference] [2, 5]: 30
HER effect + SAF [2, 6]: 10%
Reduction [%] [2, 6]: 80%
Reduction [Difference] [2, 6]: 40
HER effect [2, 7]: 30%
HER effect [2, 8]: 50%
HER effect + SAF [3, 9]: 40%
Reduction [%] [3, 9]: 43%
Reduction [Difference] [3, 9]: 30
HER effect ([3]; herbicide alone 24 g a.i./ha post-emergence, 10 DAT): 70%
HER effect + SAF [%] (crop damage) ([4]; 10 DAT, HER dose 24 g a.i./ha): 30%
Reduction [%] ([4]; 10 DAT, HER dose 24 g a.i./ha): 40%
Reduction [Difference] ([4]; 10 DAT, HER dose 24 g a.i./ha): 20
HER effect [%] (crop damage, herbicide without safener) ([4]; 10 DAT, HER dose 24 g a.i./ha): 50%

CC(C)OC(=O)C1CC(NC(=O)C2(C(C)(F)F)CC(c3cc(F)cc(F)c3)=NO2)CO1 (mixture of isomers) [Example 1.88]
HER effect + SAF [1, 10]: 10%
Reduction [%] [1, 10]: 75%
Reduction [Difference] [1, 10]: 30
HER effect [1, 11]: 40%
HER effect + SAF [2, 12]: 30%
Reduction [%] [2, 12]: 57%
Reduction [Difference] [2, 12]: 40
HER effect [2, 13]: 70%
HER effect + SAF [3, 14]: 0%
Reduction [%] [3, 14]: 100%
Reduction [Difference] [3, 14]: 20
HER effect + SAF [3, 15]: 10%
Reduction [%] [3, 15]: 80%
Reduction [Difference] [3, 15]: 40
HER effect + SAF [3, 16]: 20%
Reduction [%] [3, 16]: 76%
Reduction [Difference] [3, 16]: 65
HER effect ([3]; herbicide alone 0.5 g a.i./ha post-emergence, 21 DAT): 20%
HER effect ([3]; herbicide alone 2 g a.i./ha post-emergence, 21 DAT): 50%
HER effect ([3]; herbicide alone 8 g a.i./ha post-emergence, 21 DAT): 85%
HER effect + SAF [%] (crop damage) ([4]; 21 DAT, HER dose 2 g a.i./ha): 10%
Reduction [%] ([4]; 21 DAT, HER dose 2 g a.i./ha): 86%
Reduction [Difference] ([4]; 21 DAT, HER dose 2 g a.i./ha): 60
HER effect [%] (crop damage, herbicide without safener) ([4]; 21 DAT, HER dose 2 g a.i./ha): 70%
HER effect + SAF [%] (crop damage) ([4]; 21 DAT, HER dose 8 g a.i./ha): 20%
Reduction [%] ([4]; 21 DAT, HER dose 8 g a.i./ha): 76%
Reduction [Difference] ([4]; 21 DAT, HER dose 8 g a.i./ha): 65
HER effect [%] (crop damage, herbicide without safener) ([4]; 21 DAT, HER dose 8 g a.i./ha): 85%

COC(=O)C1COCC1NC(=O)C1(C)CC(c2cc(F)cc(F)c2)=NO1 (mixture of isomers) [Example 1.93]
HER effect + SAF [1, 17]: 10%
Reduction [%] [1, 17]: 88%
Reduction [Difference] [1, 17]: 75
HER effect + SAF [1, 18]: 30%
Reduction [%] [1, 18]: 67%
Reduction [Difference] [1, 18]: 60
HER effect [1, 19]: 85%
HER effect [1, 20]: 90%
HER effect + SAF [2, 12]: 10%
Reduction [%] [2, 12]: 88%
Reduction [Difference] [2, 12]: 75
HER effect + SAF [2, 21]: 50%
Reduction [%] [2, 21]: 46%
Reduction [Difference] [2, 21]: 43
HER effect [2, 13]: 85%
HER effect ([2]; herbicide alone 8 g a.i./ha, 21 DAT): 93%
HER effect + SAF [3, 22]: 30%
Reduction [%] [3, 22]: 65%
Reduction [Difference] [3, 22]: 55
HER effect + SAF [3, 23]: 70%
Reduction [%] [3, 23]: 22%
Reduction [Difference] [3, 23]: 20
HER effect [3, 24]: 85%
HER effect [3, 25]: 90%
HER effect + SAF [%] (crop damage) ([4]; 21 DAT, HER dose 2 g a.i./ha): 0%
Reduction [%] ([4]; 21 DAT, HER dose 2 g a.i./ha): 100%
Reduction [Difference] ([4]; 21 DAT, HER dose 2 g a.i./ha): 85
HER effect [%] (crop damage, herbicide without safener) ([4]; 21 DAT, HER dose 2 g a.i./ha): 85%
HER effect + SAF [%] (crop damage) ([4]; 21 DAT, HER dose 8 g a.i./ha): 10%
Reduction [%] ([4]; 21 DAT, HER dose 8 g a.i./ha): 89%
Reduction [Difference] ([4]; 21 DAT, HER dose 8 g a.i./ha): 83
HER effect [%] (crop damage, herbicide without safener) ([4]; 21 DAT, HER dose 8 g a.i./ha): 93%
HER effect + SAF [%] (crop damage) ([4]; 21 DAT, HER dose 32 g a.i./ha): 20%
Reduction [%] ([4]; 21 DAT, HER dose 32 g a.i./ha): 79%
Reduction [Difference] ([4]; 21 DAT, HER dose 32 g a.i./ha): 75
HER effect [%] (crop damage, herbicide without safener) ([4]; 21 DAT, HER dose 32 g a.i./ha): 95%

COC(=O)C1(C)CC(NC(=O)C2(C(C)(F)F)CC(c3cc(F)cc(F)c3)=NO2)CO1 (mixture of isomers) [Example 1.94]
HER effect + SAF [1, 26]: 0%
Reduction [%] [1, 26]: 100%
Reduction [Difference] [1, 26]: 30
HER effect + SAF [1, 17]: 30%
Reduction [%] [1, 17]: 67%
Reduction [Difference] [1, 17]: 60
HER effect + SAF [1, 18]: 70%
Reduction [%] [1, 18]: 22%
Reduction [Difference] [1, 18]: 20
HER effect ([1]; herbicide alone 2 g a.i./ha, 10 DAT): 30%
HER effect [1, 19]: 90%
HER effect [1, 20]: 90%
HER effect + SAF [2, 10]: 0%
Reduction [%] [2, 10]: 100%
Reduction [Difference] [2, 10]: 20
HER effect + SAF [2, 27]: 0%
Reduction [%] [2, 27]: 100%
Reduction [Difference] [2, 27]: 85
HER effect + SAF [2, 28]: 10%
Reduction [%] [2, 28]: 88%
Reduction [Difference] [2, 28]: 75
HER effect [2, 11]: 20%
HER effect ([2]; herbicide alone 6 g a.i./ha, 21 DAT): 85%
HER effect ([2]; herbicide alone 24 g a.i./ha, 21 DAT): 85%
HER effect + SAF [3, 29]: 0%
Reduction [%] [3, 29]: 100%
Reduction [Difference] [3, 29]: 30
HER effect + SAF [3, 22]: 20%
Reduction [%] [3, 22]: 78%
Reduction [Difference] [3, 22]: 70
HER effect + SAF [3, 23]: 30%
Reduction [%] [3, 23]: 67%
Reduction [Difference] [3, 23]: 60
HER effect ([3]; herbicide alone 2 g a.i./ha post-emergence, 10 DAT): 30%
HER effect [3, 24]: 90%
HER effect [3, 25]: 90%
HER effect + SAF [%] (crop damage) ([4]; 21 DAT, HER dose 1.5 g a.i./ha): 0%
Reduction [%] ([4]; 21 DAT, HER dose 1.5 g a.i./ha): 100%
Reduction [Difference] ([4]; 21 DAT, HER dose 1.5 g a.i./ha): 20
HER effect [%] (crop damage, herbicide without safener) ([4]; 21 DAT, HER dose 1.5 g a.i./ha): 20%
HER effect + SAF [%] (crop damage) ([4]; 21 DAT, HER dose 6 g a.i./ha): 10%
Reduction [%] ([4]; 21 DAT, HER dose 6 g a.i./ha): 88%
Reduction [Difference] ([4]; 21 DAT, HER dose 6 g a.i./ha): 75
HER effect [%] (crop damage, herbicide without safener) ([4]; 21 DAT, HER dose 6 g a.i./ha): 85%
HER effect + SAF [%] (crop damage) ([4]; 21 DAT, HER dose 24 g a.i./ha): 20%
Reduction [%] ([4]; 21 DAT, HER dose 24 g a.i./ha): 76%
Reduction [Difference] ([4]; 21 DAT, HER dose 24 g a.i./ha): 65
HER effect [%] (crop damage, herbicide without safener) ([4]; 21 DAT, HER dose 24 g a.i./ha): 85%
